Molecules are shown by their SMILES. Several values for one entry are separate records, joined by “and”; a condition that tells them apart may be missing. Equal values may be shown once.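 Where inhibition never reached the appropriate level, the endpoint shown equals the highest concentration tested. Otherwise, values were interpolated linearly from a five-concentration, 48-hour dose response in 96-well plates. At the GI50, growth is halved. At the TGI there is no net growth.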 Where a SMILES comes first, the peptide text is derived from it. [ ]: non-standard residue; d: D form. The star is where a group is joined. ξ: configuration not given here. ξF = NC(Cc1ccccc1)C(=O)O; Cbz = O=C(OCc1ccccc1)* Where only a bound is given, the exact number is not on record here.

In PubChem BioAssay (NCI) one finds TGI and GI50 data, which are given here for 18 compounds.

Experiment in all cases: NCI-60 cell line screen, 48 h
In test [1] the test system is SW-620 colon.
Test [2] relates to HOP-62 NSCLC.
Test [3] has as its system TK-10 renal.
For test [4], the system named is NCI-H23 lung.
For test [5], the system named is A498 renal.
Test [6] relates to HCT-15 colon.
The test system of test [7] is SF-539 CNS.
Test [8] deals with SK-MEL-5 melanoma.
Test [9] relates to HL-60(TB) leukemia.
In test [10] the test system is U251 CNS.
In test [11] the test system is DU-145 prostate.
Test [12] concerns HS 578T breast.
The test system of test [13] is MALME-3M melanoma.
Test [14] concerns COLO 205 colon.
Test [15] has as its system SNB-75 CNS.
Test [16] deals with HCC-2998 colon.

Turning to `COC(=O)C1CCC(=O)N1CN(C(C)=O)c1cccc(O)c1` (stereo unspecified), the TGI in test [1], in test [2], in test [3], in test [4], in test [5] and in test [6] was above 100 µM each time. The TGI in test [7], in test [8], in test [9], in test [10], in test [11] and in [12] was above 100 µM throughout. Moreover, the TGI in test [13], in test [14] and in test [15] was above 100 µM each time.

With `Cc1ccc(S[C@@](C=O)(NC(=O)OCc2ccccc2)C(F)(F)F)cc1`, the TGI in [1] was 66.9 µM; in [2], 88.3 µM; in test [4] it was 39.8 µM; in test [5], above 100 µM; in test [6], 54.4 µM; in [7], 70.9 µM. Further, the TGI is 41.4 µM in test [8]; 41.8 µM in test [9]; above 100 µM in test [16]; 40.7 µM in test [10]; 47.4 µM in test [11]; above 100 µM in test [12]. In addition, the TGI was found to be 78.3 µM in test [13], 35.5 µM in [14] and 80 µM in test [15].

For the compound `Cc1ccc(OCC2OC(n3cnc4c(Cl)nc(Nc5cc(Cl)cc(Cl)c5)nc43)CC2Oc2ccc(C)cc2)cc1` (stereo unspecified), the TGI in test [1], in test [4], in [5], in [6], in [7] and in [8] was above 100 µM in each case. Further, the TGI in [9], in [16], in test [10], in [11], in test [12] and in test [13] was above 100 µM in each case. Besides, the TGI in [14] and in test [15] was above 100 µM each time.

As for `CCOc1cnc(C(O)(c2ccccc2)c2ccccc2)o1`, the TGI in test [1], in test [2], in [4], in test [5], in [6] and in test [7] was above 100 µM throughout. Further, the TGI in test [8], in test [9], in test [16], in [10], in [11] and in [12] was above 100 µM throughout. In addition, the TGI in test [13], in test [14] and in test [15] was above 100 µM throughout.

As to `Cc1nc2sc3cccc(Cl)c3n2c(=O)c1N=Nc1ccc(Cl)cc1`, the TGI in test [1] is above 100 µM; in test [2], above 100 µM; in [3], above 100 µM; in test [4], above 100 µM; in test [5], 67.6 µM; in test [6], above 100 µM. In addition, the TGI in test [7], in test [8], in [9], in [10], in test [11] and in test [12] was above 100 µM each time. The TGI in [13], in test [14] and in [15] was above 100 µM throughout.

In the case of `COC(=O)c1c(C)cccc1/C=C1\Cc2ccc(C)c(C)c2C1=O`, the TGI in [1], in [2], in [3], in test [4], in test [5] and in [6] was above 100 µM in each case. For the same compound, the TGI in test [7], in [8], in test [9], in test [16], in test [10] and in test [11] was above 100 µM in each case. The TGI in [12], in [13] and in test [15] was above 100 µM each time.

Turning to `COC1(OC)c2occc2C(=N)c2ccc(=O)oc21`, the TGI in [1], in [2], in [3], in test [4], in test [5] and in test [6] was above 100 µM throughout. For the same compound, the TGI in test [7] is above 100 µM; in test [8] it was 49.2 µM; in test [9], above 100 µM; in test [16], above 100 µM; in test [10] it was above 100 µM; in test [11], above 100 µM. In addition, the TGI in [12] was above 100 µM; in [13], 33.5 µM; in [14], above 100 µM.

`COC(=O)/C=C(\C(=O)OC)c1cc(C)c2cc(C(C)C)ccc(C)c1-2`: the TGI in [1] is above 100 µM; in test [2], above 100 µM; in [3], above 100 µM; in test [4], above 100 µM; in [5] it was above 100 µM; in test [6], 27.5 µM. Further, the TGI in test [7] was above 100 µM; in test [8] it was 80 µM; in test [9] it was above 100 µM; in [16] it was 87.5 µM; in test [10], above 100 µM; in test [11] it was above 100 µM. Further, the TGI in test [12], in test [13] and in test [14] was above 100 µM in each case.

Take `O=C(Nn1c(-c2ccccc2)nc2ccccc2c1=O)c1ccc(Cl)cc1`: the TGI in test [1], in [2], in test [3], in test [4], in test [5] and in test [6] was above 100 µM throughout. For the same compound, the TGI in test [7], in [8], in test [9], in test [16], in test [10] and in test [11] was above 100 µM each time. Besides, the TGI in test [12], in test [13] and in test [15] was above 100 µM in each case.

As to `O=[N+]([O-])c1cccc2nc3ccccc3c(NCCCCCNc3c4ccccc4nc4cccc([N+](=O)[O-])c34)c12`, the TGI in test [1] is 1.62 µM; in test [3], 0.26 µM and 1.79 µM; in test [4], 0.185 µM; in test [5], 0.248 µM; in test [6] it was 0.0573 µM and 0.119 µM; in [7] it was 0.135 µM and 0.0297 µM. The TGI is 0.255 µM and 0.149 µM in test [8]; 0.0429 µM in test [9]; 0.103 µM and 0.04 µM in [16]; 0.0929 µM in test [11]; 0.512 µM in [12]; 0.16 µM in test [13]. Moreover, the TGI in test [14] was 0.13 µM and 0.0322 µM; in test [15], 0.867 µM and 0.827 µM. Moreover, the results for the GI50 in [8] and in test [15] were 18 nM and 41 nM, respectively.

For `CCOC(=O)CNC(=O)C(Cc1ccccc1)NC(=O)OCc1ccccc1` (stereo unspecified) (Cbz-[ξF]-Gly-OEt), the TGI in [1], in test [2], in test [4], in [5], in [6] and in test [8] was above 100 µM each time. For the same compound, the TGI in [9], in test [16], in [10], in test [11], in test [12] and in test [13] was above 100 µM each time. The TGI in test [14] and in [15] was above 100 µM in each case.

As for `Cc1[nH]n(-c2nc3c(c(=O)[nH]2)CCCC3)c(=O)c1CCO`, the TGI in test [1], in test [2], in test [3], in test [4], in [5] and in test [6] was above 100 µM each time. The TGI in test [7], in test [8], in test [9], in test [16], in test [10] and in test [11] was above 100 µM in each case. Also, the TGI in [12], in [13] and in [14] was above 100 µM throughout.

Take `O=c1c(-c2ccccc2)nnc2n(Cc3ccccc3)c3ccccc3n12`: the TGI in test [1], in test [3], in test [4], in [5], in test [6] and in [7] was above 100 µM in each case. Moreover, the TGI in test [8], in test [9], in test [16], in test [10], in test [11] and in test [12] was above 100 µM throughout. For the same compound, the TGI in test [13], in test [14] and in test [15] was above 100 µM each time.

On to `COc1ccc(OC)c2sc(N3C(=O)/C(=C/c4cccc(Oc5ccccc5)c4)N=C3c3ccccc3)nc12`, for which the TGI in [1], in test [2], in [3], in [4], in test [5] and in test [6] was above 100 µM each time. Moreover, the TGI in test [8], in test [9], in test [16], in test [10], in test [11] and in test [12] was above 100 µM in each case. Besides, the TGI in test [13], in test [14] and in test [15] was above 100 µM throughout.

For `Cc1cc(N(CCC#N)CCC#N)ccc1/C(N=Nc1ccccc1)=N\NC(=O)c1cc(Cl)ccc1O`, the TGI in test [2] is above 100 µM; in test [3], 52.2 µM; in test [4], 35.1 µM; in [5] it was above 100 µM; in test [6], 53.1 µM; in test [7], 58.3 µM. Moreover, the TGI in test [8] was 46.5 µM; in test [9], above 100 µM; in test [16], 31.8 µM; in [10] it was above 100 µM; in test [11], above 100 µM; in [12], 80.2 µM. The figures for the TGI in test [13], in test [14] and in [15] were 78.3 µM, 39.1 µM and above 100 µM, respectively.

As to `O=C(c1ccc(Cl)cc1)N(C(=O)N1CCCCC1)c1ccccc1`, the TGI in test [1], in test [4], in [5], in test [6], in [7] and in test [8] was above 100 µM in each case. Moreover, the TGI in test [9], in [10], in test [11], in test [12], in test [13] and in [14] was above 100 µM throughout.

Consider `Cc1nc2c(sc3nc4c(cc32)CCC4)c(=O)o1`, for which the TGI is above 100 µM in [1]; above 100 µM in test [2]; above 100 µM in test [3]; above 100 µM in [4]; above 100 µM in test [5]; 99.6 µM in test [6]. Also, the TGI in test [7] was above 70.8 µM; in [8] it was above 100 µM; in [9] it was above 100 µM; in [16], above 100 µM; in test [10] it was above 100 µM; in [11], above 100 µM. Besides, the TGI in test [12], in test [14] and in test [15] was above 100 µM throughout.

`CC(=O)c1ccc(Nc2c3c(nc4ccccc24)CCCC3)cc1`: the TGI was above 78.8 µM in test [1]; above 47.3 µM in test [2]; above 100 µM in test [3]; 43.4 µM in [4]; above 59.7 µM in test [5]; above 100 µM in test [6]. The TGI in [7] is above 100 µM; in [8], above 59.2 µM; in [9], above 100 µM; in test [16], above 100 µM; in [10], above 59.2 µM; in test [11], above 65 µM. The TGI is above 88 µM in [12], above 51.1 µM in test [14] and 22.1 µM in test [15].
